`COc1nc(-c2ccc(F)cc2C)c2c(n1)N(c1c(F)cccc1F)C(=O)NC2` [Example 161, 1-(2,6-Difluorophenyl)-5-(4-fluoro-2-methylphenyl)-7-methoxy-3,4-dihydro-1H-pyrimido[4,5-d]pyrimidin-2-one]: the melting point lay in the range of 210 to 211 °C.
Under `COc1nc(-c2ccccc2)c2c(n1)N(c1c(F)cccc1F)C(=O)NC2` [Example 166, 1-(2,6-Difluorophenyl)-5-phenyl-7-methoxy-3,4-dihydro-1H-pyrimido[4,5-d]pyrimidin-2-one] stands 221 to 224 °C; under `Cc1cc(F)ccc1-c1nc(OCCO)nc2c1CNC(=O)N2c1c(F)cccc1F` [Example 163, 1-(2,6-Difluorophenyl)-5-(4-fluoro-2-methylphenyl)-7-(2-hydroxyethoxy)-3,4-dihydro-1H-pyrimido[4,5-d]pyrimidin-2-one], 172 to 175 °C; under `COc1nc(-c2ccccc2)c2c(n1)N(c1ccccc1)C(=O)NC2` [Example 167, 1,5-diphenyl-7-methoxy-3,4-dihydro-1H-pyrimido[4,5-d]pyrimidin-2-one], 220 to 222 °C.

Broadly, the melting point is the temperature, or range, at which the solid turns liquid.
